Converted amounts (≈) assume the structure as drawn. The source made the active and inactive calls. No cut-off for these calls is given here.
Experiments:
[1] = tested on: Staphylococcus aureus; assay: Antimicrobial activity against methicillin-resistant Staphylococcus aureus 003; format: functional
[2] = tested on: Enterococcus faecalis; assay: Antimicrobial activity against vancomycin resistant Enterococcus faecalis ATCC 51299; format: functional
[3] = tested on: Staphylococcus aureus; assay: Antimicrobial activity against methicillin-resistant Staphylococcus aureus 011; format: functional
[4] = tested on: Staphylococcus aureus; assay: Antimicrobial activity against Staphylococcus aureus 31; format: functional
[5] = tested on: Staphylococcus aureus; assay: Antimicrobial activity against Staphylococcus aureus 10; format: functional
[6] = tested on: Candida albicans; assay: Antimicrobial activity against fluconazole-resistant Candida albicans; format: functional
[7] = Hemolytic activity against Mianyang red blood cells (unknown origin); format: toxicity, cell-based, RBC
[8] = tested on: Escherichia coli; assay: Antimicrobial activity against Escherichia coli; format: functional
[9] = tested on: Staphylococcus aureus; assay: Antibacterial activity against methicillin-resistant Staphylococcus aureus assessed as inhibition of bacterial growth at 1 times of MIC; format: functional, organism-based
[10] = tested on: Staphylococcus aureus; assay: Bactericidal activity against methicillin-resistant Staphylococcus aureus; format: functional, organism-based
[11] = tested on: Staphylococcus aureus; assay: Bactericidal activity against methicillin-resistant Staphylococcus aureus assessed as eradication of bacterial growth at 4 times of MIC measured within 1 hrs relative to control; format: functional
[12] = tested on: Staphylococcus aureus; assay: Antibacterial activity against methicillin-resistant Staphylococcus aureus at sub-MIC measured after 20 days of continuous passage; format: functional, organism-based; conditions: time 20.0 day
[13] = tested on: HEK-293T; assay: Cytotoxicity against HEK293T cells at 64 microg/ml by MTT assay; format: toxicity, cell-based; conditions: human, dose 64 µg/ml
[14] = tested on: Staphylococcus aureus; assay: Synergistic antibacterial activity against methicillin-resistant Staphylococcus aureus assessed as fractional inhibitory concentration index in presence of ceftriaxone; format: functional
[15] = tested on: Staphylococcus aureus; assay: Synergistic antibacterial activity against methicillin-resistant Staphylococcus aureus assessed as fractional inhibitory concentration index in presence of cefoxitin; format: functional
[16] = tested on: Staphylococcus aureus; assay: Synergistic antibacterial activity against methicillin-resistant Staphylococcus aureus assessed as fractional inhibitory concentration index in presence of chlorpromazine; format: functional
[17] = tested on: Staphylococcus aureus; assay: Synergistic antibacterial activity against methicillin-resistant Staphylococcus aureus assessed as fractional inhibitory concentration index in presence of azithromycin; format: functional
[18] = tested on: Staphylococcus aureus; assay: Synergistic antibacterial activity against methicillin-resistant Staphylococcus aureus assessed as fractional inhibitory concentration index in presence of vancomycin; format: functional
[19] = tested on: Staphylococcus aureus; assay: Synergistic antibacterial activity against methicillin-resistant Staphylococcus aureus assessed as fractional inhibitory concentration index in presence of LCN antibiotic; format: functional, organism-based
[20] = tested on: Staphylococcus aureus; assay: Synergistic antibacterial activity against methicillin-resistant Staphylococcus aureus assessed as fractional inhibitory concentration index in presence of enrofloxacin; format: functional, organism-based
[21] = tested on: Staphylococcus aureus; assay: Antibiofilm activity against methicillin-resistant Staphylococcus aureus assessed as decrease in biofilm density at 1 to 8 times of MIC incubated for 24 hrs by fluorescence microscopic analysis; format: functional, organism-based
[22] = tested on: Staphylococcus aureus; assay: Antibiofilm activity against methicillin-resistant Staphylococcus aureus assessed as decrease in biofilm biomass at 1 to 8 times of MIC by crystal violet staining based analysis; format: functional, organism-based
[23] = tested on: Staphylococcus aureus; assay: Antibiofilm activity against methicillin-resistant Staphylococcus aureus assessed as reduction in number of live cells at 8 times of MIC (reference value: 7.79 log10CFU/ml); format: functional
[24] = tested on: Staphylococcus aureus; assay: Antibiofilm activity against methicillin-resistant Staphylococcus aureus assessed as inhibition of biofilm formation at 2 times of MIC by crystal violet staining based analysis relative to control; format: functional
[25] = tested on: Mitochondrial membrane; assay: Induction of mitochondrial membrane depolarization in methicillin-resistant Staphylococcus aureus assessed as increase in fluorescence intensity at 1 to 8 times of MIC by DiSC3(5) staining based analysis; format: cell membranes
[26] = tested on: Cell membrane; assay: Disruption of cell membrane integrity in Candida albicans; format: subcellular
[27] = tested on: Cell membrane; assay: Disruption of cell membrane integrity in methicillin-resistant Staphylococcus aureus assessed as nucleic acid leakage by absorbance based analysis; format: subcellular
[28] = tested on: Staphylococcus aureus; assay: Antimicrobial activity against methicillin-resistant Staphylococcus aureus in presence of peptidoglycan; format: functional, organism-based
[29] = tested on: Staphylococcus aureus; assay: Antimicrobial activity against methicillin-resistant Staphylococcus aureus in presence of cardiolipin; format: functional, organism-based
[30] = tested on: Cell membrane; assay: Disruption of cell membrane integrity in methicillin-resistant Staphylococcus aureus assessed as cell rupture at 2 to 4 times of MIC by scanning electron microscopic analysis; format: subcellular
[31] = tested on: Cell membrane; assay: Disruption of cell membrane integrity in methicillin-resistant Staphylococcus aureus assessed as cell deformation at 2 to 4 times of MIC by scanning electron microscopic analysis; format: subcellular
[32] = tested on: DNA; assay: Binding affinity to methicillin-resistant Staphylococcus aureus DNA assessed as inhibition of DNA migration at 75 microg/ml by electrophoretic analysis; format: nucleic-acid assay; conditions: dose 75.0 µg/ml
[33] = tested on: DNA; assay: Binding affinity to methicillin-resistant Staphylococcus aureus DNA assessed as change in DNA conformation by UV absorption based analysis; format: nucleic-acid assay
[34] = tested on: DNA; assay: Binding affinity to […] methicillin-resistant Staphylococcus aureus DNA assessed as inhibition of DNA migration by electrophoretic analysis; format: nucleic-acid assay
[35] = tested on: DNA; assay: Binding affinity to methicillin-resistant Staphylococcus aureus DNA assessed as decrease in fluorescence by PI staining based analysis; format: nucleic-acid assay
[36] = tested on: DNA; assay: Binding affinity to methicillin-resistant Staphylococcus aureus DNA minor groove assessed as decrease in fluorescence by DAPI staining based analysis; format: nucleic-acid assay
[37] = tested on: Staphylococcus aureus; assay: Antibacterial activity against methicillin-resistant Staphylococcus aureus infected in cyclophosphamide-injected Kunming mouse model of skin wound infection assessed as increase in body weight at 2 to 4 mg/kg measured after 3 days; format: functional, organism-based; conditions: dose 2-4 mg/kg, time 3.0 day
[38] = tested on: Staphylococcus aureus; assay: Antibacterial activity against methicillin-resistant Staphylococcus aureus infected in cyclophosphamide-injected Kunming mouse model of skin wound infection assessed as wound repair by measuring reduction in wound area at 2 to 4 mg/kg measured for 7 days by photographic analysis; format: functional, organism-based; conditions: dose 2-4 mg/kg, time 7.0 day
[39] = tested on: Staphylococcus aureus; assay: Antibacterial activity against methicillin-resistant Staphylococcus aureus infected in cyclophosphamide-injected Kunming mouse model of skin wound infection assessed as reduction in bacterial load in skin at 1 mg/kg measured after 7 days; format: functional; conditions: time 7 day
[40] = tested on: Staphylococcus aureus; assay: Antibacterial activity against methicillin-resistant Staphylococcus aureus infected in cyclophosphamide-injected Kunming mouse model of skin wound infection assessed as reduction in bacterial load in skin at 2 mg/kg measured after 7 days; format: functional; conditions: time 7 day
[41] = tested on: Staphylococcus aureus; assay: Antibacterial activity against methicillin-resistant Staphylococcus aureus infected in cyclophosphamide-injected Kunming mouse model of skin wound infection assessed as reduction in bacterial load in skin at 4 mg/kg measured after 7 days; format: functional; conditions: time 7 day
[42] = tested on: Staphylococcus aureus; assay: Antibacterial activity against methicillin-resistant Staphylococcus aureus infected in cyclophosphamide-injected Kunming mouse model of skin wound infection assessed as reduction in IL-6 level in skin at 1 to 4 mg/kg administered for 7 days and measured on day 8; format: functional, organism-based; conditions: dose 1-4 mg/kg, time 8.0 day
[43] = tested on: Staphylococcus aureus; assay: Antibacterial activity against methicillin-resistant Staphylococcus aureus infected in cyclophosphamide-injected Kunming mouse model of skin wound infection assessed as increase in IL-10 level in skin at 1 to 4 mg/kg administered for 7 days and measured on day 8; format: functional, organism-based; conditions: dose 1-4 mg/kg, time 8.0 day
[44] = tested on: Staphylococcus aureus; assay: Antibacterial activity against methicillin-resistant Staphylococcus aureus infected in cyclophosphamide-injected Kunming mouse model of skin wound infection assessed as reduction in skin lesions at 1 to 4 mg/kg administered for 7 days and measured on day 8 by H and E staining based analysis; format: functional, organism-based; conditions: dose 1-4 mg/kg, time 8.0 day
[45] = tested on: Staphylococcus aureus; assay: Antibacterial activity against methicillin-resistant Staphylococcus aureus infected in cyclophosphamide-injected Kunming mouse model of skin wound infection assessed as normal morphological appearance of skin at 1 to 4 mg/kg administered for 7 days and measured on day 8 by H and E staining based analysis; format: functional, organism-based; conditions: dose 1-4 mg/kg, time 8.0 day

CC(=O)O[C@H]1CC[C@]2(C)[C@H]3CC=C4[C@@H]5CC(C)(C)CC[C@]5(C(=O)NCCCNC(=N)N)CC[C@@]4(C)[C@]3(C)CC[C@H]2C1(C)C
MIC [1]: 1 µg/mL (≈ 1.68 µM)
MIC [2]: 2 µg/mL (≈ 3.35 µM)
MIC [3]: 2 µg/mL (≈ 3.35 µM)
MIC [4]: 1 µg/mL (≈ 1.68 µM)
MIC [5]: 1 µg/mL (≈ 1.68 µM)
MIC [6]: 1 µg/mL (≈ 1.68 µM)
HC50 [7]: 399 µg/mL
MIC [8]: > 64 µg/mL
Activity [9]: Active
Activity [10]: Active
Activity [11]: 99.99%
Activity [12]: Active
Activity [13]: Non-Toxic
Activity [14]: Active
Activity [15]: Active
Activity [16]: Active
fractional inhibitory concentration index (FICI) [17]: 0.188
Activity [18]: Active
Activity [19]: Active
Activity [20]: Active
Activity [21]: Dose-Dependent Effect
Activity [22]: Active
Activity [23]: 2.7 log10CFU/ml
inhibition (INH) [24]: >80%
Activity [25]: Dose-Dependent Effect
Activity [26]: Active
Activity [27]: Active
Activity [28]: Active
Activity [29]: inactive
Activity [30]: Active
Activity [31]: Active
Activity [32]: Active
Activity [33]: Active
Activity [34]: Active
Activity [35]: Dose-Dependent Effect
Activity [36]: inactive
Activity [37]: Active
Activity [38]: Active
Activity [39]: 0.97 log10CFU/mg
Activity [40]: 1.24 log10CFU/mg
Activity [41]: 1.94 log10CFU/mg
Activity [42]: Active
Activity [43]: Active
Activity [44]: Active
Activity [45]: Active

From ChEMBL document CHEMBL6127107, “Oleanolic acid derivatives against drug-resistant bacteria and fungi by multi-targets to avoid drug resistance” (Eur J Med Chem, 2024)
